Where “and” joins values, the source holds several entries; their conditions need not be identical. Equal values may be shown once. Where a name gives a salt, the structure may show the parent alone.
How the values were obtained:
GHB receptor = settings: reported in United States patent application 20020132846; cited from earlier work
human subjects = assay: 4-HPA and 4-HPA lactone administered to human subjects (Example 53); settings: for effects experienced by the subjects: at equivalent doses of GHB toxicity or sleep would have occurred
patients = settings: therapeutic doses, GHB as lone agent; cited from earlier work
patient with ARG = assay: Case reports: patients with ARG treated with GABAnergic agents prior to sleep; assay type: in vivo, human
Source text: The patient was then switched to monotherapy using only NaGHB 4.5 grams prior to the intended sleep time and a second dose of 4.5 grams four hours after the first. […] The patient was switched back to treatment with multiple GABAnergic agents and again had dramatic reduction in fatigue. On a scale from 0 to 10 where 10 is the most tired, the patient rated the fatigue at 10 without treatment, 3 to 4 with treatment on multiple GABAnergic agents, and 10 on monotherapy with NaGHB.
A patient with ARG was treated with the Class IV agent zolpidem 10 mg, The Class III agent alprazolam 2 mg, the Class V agent gabapentin 200 mg, and the Class II agent sodium salt of gamma-hydroxyl butyrate 5.25 grams prior to sleep. The patient was treated chronically on a nightly basis. Sometimes, according to the patient's judgement, 3.75 grams of the sodium salt of gamma-hydroxyl butyric acid was consumed upon awakening, which usually was about six hours after the first dose of medications.
In another example a patient with ARG was given the Class I agent 660 ml red wine 13.5% alcohol by volume, the Class III agent alprazolam 3 mg, the Class V agent gabapentin 300 mg, and the Class IV agent 10 mg zolpidem. Five hours later, the patient was awoken and given the Class II agent the sodium salt of gamma-hydroxyl butyric acid 3 grams.
In another example a patient with ARG was treated with the Class I agent 660 ml red wine 13.5% alcohol by volume, the Class I agent liqeur 30% alcohol by volume 200 ml, the Class III agent alprazolam 2 mg, the […] 200 mg, and the Class II agent the sodium salt of gamma-hydroxyl butyric acid 4 grams prior to sleep.
A patient with acquired resistance to GABAnergic agents was treated with the Class III agent alprazolam 2 mg, the Class IV agent zolpidem 10 mg, the Class V agent gabapentin 200 mg, and the Class II agent NaGHB 7 grams. […] 7 grams NaGHB as a single dose is a large dose, which may be too toxic for some patients.
A patient with acquired resistance to GABAnergic agents was treated with the Class I agent red wine 660 ml 13.5% alcohol by volume, then the Class III agent alprazolam 3 mg, the Class V agent gabapentin 300 mg, the Class IV agent zolpidem 10 mg, and the Class II agent NaGHB 9 grams. 4 hours after sleep onset the patient awoke in a neighboring room in a pool of vomitus of partially digested wine. The patient was lucid and had mild nausea. The patient went back to sleep in bed for an additional 2 hours and was able to work the next day. […] The combination of red wine and such large doses of GHB are not typically recommended by the inventor and can be fatal.
A patient with ARG was given the Class III agent alprazolam 7 mg, the Class IV agent zolpidem 10 mg, and the Class V agent gabapentin 300 mg prior to sleep. […] The dose of alprazolam may be reduced by adding a Class I or Class II agent to the regimen.
A patient with ARG who had minimal obstructive sleep apnea was chronically treated with the Class I agent red wine about 200 to 1500 ml 13.5% alcohol by volume, the Class IV agent zolpidem 10 mg, the Class III agent alprazolam 3 mg, and the Class V agent gabapentin 300 mg prior to sleep. Sufficient wine was consumed to produce moderate to strong sleepiness and then the other GABAminergic medications were consumed. When the volume of wine on a particular night required to induce strong sleepiness was inconvenient, the patient quickly drank liqeur 30% alcohol by volume, typically about 160 ml, in order to induce strong sleepiness.
A patient with ARG who had minimal obstructive sleep apnea was chronically treated with the Class I agent red wine about 660 to 1500 ml about 13% alcohol by volume, the Class IV agent zolpidem 10 mg, the Class III agent alprazolam 3 mg, and the Class V agent gabapentin 300 mg prior to sleep. Sufficient wine was consumed to produce moderate to strong sleepiness and then the other GABAnergic medications were consumed. […]

[1] = test system: patient with a sleeping disorder; assay: Case report: patient with a sleeping disorder treated with alprazolam, zolpidem, gabapentin and NaGHB (Example 86); assay type: in vivo, human
Method: Overnight polysomnography had shown minimal obstructive sleep apnea with 2 apneas per hour of sleep. The patient was placed on a regimen of the Class III agent alprazolam, the Class IV agent zolpidem, the Class V agent gabapentin, and the Class II agent the sodium salt of gamma-hydroxyl butyric acid (GHB), which were administered prior to sleep for the treatment of sleeping disorders. The initial dose of GHB was prescribed as 2.25 grams prior to sleep and repeat dose of 2.25 grams to be taken 2.5 to 4 hours after sleep onset.
At a dose of 3 grams prior to sleep and a second dose upon awakening, the patient was eating only one to two small meals per day. Their maximum previous weight had been 169 lbs and their baseline weight was 159 pounds. They lost weight down to 145 lbs and looked gaunt. They believed that the GHB had suppressed their appetite and consulted an endocrinologist, who did a thorough medical evaluation including an am cortisol, a comprehensive chemistry profile, a CBC, and thyroid studies, all of which were normal. The patient discontinued the GHB and their appetite returned within two days. Over roughly five months, they then gained weight up to 195 lbs and their weight remained stable.

[2] = Chemical stability of GHB as a function of pH (cyclization to GBL); assay type: physicochemical
[3] = test system: patients with fibromyalgia; settings: 3 grams NaGHB at bedtime and a second dose about 4 h later; cited from earlier work
[4] = test system: patients with fibromyalgia or chronic fatigue syndrome; settings: cited from earlier work
pH of NaGHB solution = assay type: physicochemical; settings: 240 mg per ml
Method: The pH of NaGHB at 240 mg per ml is approximately 9.5, at which neither pathogenic nor non-pathogenic organisms grow. As the concentration of NaGHB is increased, the pH is yet higher. […] Concentrated NaGHB is highly toxic regardless of pH and must be diluted prior to consumption. The pH of NaGHB at 500 mg/ml drops rapidly into the physiologic range upon dilution. Highly concentrated GBL and 1,4-butanediol are known to be resistant to microbial growth, require no special storage procedures, and likewise must be diluted prior to consumption, typically to 5% to 30% solutions but more preferably 5% to 20%.

In the case of `CC1CCC(=O)O1` (stereo not drawn) [4-HPA lactone, 4-hydroxyl pentanoic acid lactone], the “binding to the GHB receptor” value (GHB receptor) is listed as “bind the GHB receptor”, the “toxicity compared with GHB” value (human subjects) is listed as “less toxic than GHB” and the “effects experienced by the subjects” value (human subjects) is listed as “relaxing effects”.

In the case of `CC(O)CCC(=O)O` (stereo not drawn) [Example 4-HPA, 4-hydroxyl pentanoic acid], the “toxicity compared with GHB” value (human subjects) is reported as “less toxic than GHB” and the “effects experienced by the subjects” value (human subjects) is reported as “relaxing effects”.

In the case of `O=C(O)CCCO` [GHB, gamma hydroxyl butyric acid], the “duration of the sleep inducing effect” value (patients) is given as 2 to 3 h and 2 to 4 h, the “sleep induction by the second dose of GHB” value (patient with ARG; 3.75 grams upon awakening, about six hours after the first dose of medications) is given as “usually did not induce sleep” and the “sleep induction by the second dose of GHB” value ([1]; 3.75 grams upon awakening) is given as “usually did not induce sleep”. The “body weight on treatment” value ([1]; baseline weight 159 pounds, 3 grams prior to sleep and a second dose upon awakening) was 145 lbs, the “medical evaluation (am cortisol, comprehensive chemistry profile, CBC, thyroid studies)” value ([1]; during weight loss on GHB) was “normal” and the “time to return of appetite after discontinuing GHB” value ([1]; human, in vivo) was “two”. For the same molecule, the appetite ([1]; within one week of beginning to take the GHB) was “marked decrease in appetite” and the “pH at which gamma-butyryl lactone (cyclized form) begins to form” value [2] was no more than 6.

For `O=C(O)CCCO` [NaGHB, sodium salt of gamma-hydroxyl butyric acid], the “patients in the treatment arm who withdrew due to side effects” value [3] is given as “Six of 24”, the improvement on monotherapy (patient with ARG; NaGHB 4.5 grams twice per sleep period, no other GABAnergic agent) is given as “no improvement” and the “sleep induction by the first dose” value (patient with ARG; monotherapy, NaGHB 4.5 grams prior to the intended sleep time) is given as “did not induce sleep at all”. The “duration of sleep induced by the second dose” value (patient with ARG; monotherapy, second dose of 4.5 grams four hours after the first) was “two”, the “side effects / toxicity” value (patient with ARG; patient with ARG on the regimen) was “state of near stupor” and the “fatigue rated by the patient” value (patient with ARG; scale from 0 to 10 where 10 is the most tired, 10 without treatment) was 10. The “sleep obtained per dose” value ([4]; 2.25 grams NaGHB at bedtime and again four hours later, in some instances) was 2 to 3 h, the “effect in patients diagnosed with chronic fatigue syndrome” value ([4]; pilot open label trial, quoted from document C) was “no effect” and the “pH of the solution” value (pH of NaGHB solution) was “approximately 9.5”.

With cyanocobalamin the “fatigue on the increased dose of cyanocobalamin” value (patient with ARG; 2000 mcg IM about every three days, in addition to multiple GABAnergic agents) was “mild decrease in fatigue” and the “mouth sores under vitamin treatment” value (patient with ARG; cyanocobalamin 500 mcg IM once, 'rotate' 5 mg orally, multivitamin containing thiamine 1.5 mg, patient on Example 90a regimen) was “resolved”.
